In patent publication US20180042925A1, “METHODS FOR TREATING CANCER” (CHILDREN'S HOSPITAL MEDICAL CENTER, priority 2015, published 2018):

How the values were obtained:
G62 cells = assay: CellTiter Glo cell viability assay, pharmacological SCD1 inhibition; assay type: cell-based, human; conditions: vs vehicle (DMSO), FIG. 2B
Procedure: For the pharmacological inhibition studies of FIGS. 2B and 2C, an equal number of G62 cells was seeded in 96 wells in the presence of SCD1 inhibitor or vehicle (DMSO) in quadruplicate. Viable cells were quantified at indicated times using CellTiter Glo cell viability assay kit (Promega).

G68 cells = assay: as above; assay type: cell-based, human; conditions: vs vehicle (DMSO), FIG. 2C

Cc1nnc(-c2ccc(N3CCC(Oc4cc(F)ccc4Cl)CC3)nn2)o1 [CAY10566, 3-[4-(2-chloro-5-fluorophenoxy)-1-piperidinyl]-6-(5-methyl-1,3,4-oxadiazol-2-yl)-pyridazine]
cell viability in the presence or absence of CAY10566 (G62 cells): induction of G62 cell death and growth inhibition | cell viability in the presence or absence of CAY10566 (G68 cells): induction of G68 cell death and growth inhibition
